{"source": "paper PMC4057422", "about": "“Apoptotic Death of Prostate Cancer Cells by a Gonadotropin-Releasing Hormone-II Antagonist” (PLoS ONE, 2014)", "key": {"human T cells": {"test_system": "human T cells", "conditions": "ref [20]; cited from earlier work", "text": "In most vertebrates, the other type of GnRH, called GnRH-II, is identified, which is structurally conserved in evolution from fish to mammals [12]–[14]. GnRH-II is expressed not only in the brain but also in peripheral reproductive and immune tissues. This wide expression pattern may confer a variety of physiological functions on the peptide. Similar to GnRH-I, GnRH-II is able to regulate reproduction in females by stimulating the secretion of LH and FSH [16], [17]."}, "ovarian cancer cells": {"test_system": "ovarian cancer cells", "conditions": "cited from earlier work", "text": "GnRH-II is likely to function on prostate cancer cells by interacting with unknown proteins, based on our previous observation that radiolabeled GnRH-II was able to bind various human prostate cancer cells. […] Because of the sequence similarity between GnRH-I and GnRH-II, GnRH-II and its antagonists are considered to exert similar effects on these types of cancer, although its receptor has not been identified in human and its action mechanisms have not been well elucidated. In some reports, GnRH-II has been shown ..."}, "prostate cancer cells [1]": {"test_system": "prostate cancer cells", "conditions": "cited from earlier work; for displacement of radiolabeled GnRH-II binding: various human prostate cancer cells, ref [27]", "text": "GnRH-II is likely to function on prostate cancer cells by interacting with unknown proteins, based on our previous observation that radiolabeled GnRH-II was able to bind various human prostate cancer cells."}, "PC3 xenograft tumor": {"test_system": "PC3 xenograft tumor", "conditions": "cited from earlier work; for growth of tumor formed by implanted PC3 cells: previous studies, ref [27], [28]", "procedure": "PC3 cells were implanted into the flanks of nude mice. After tumor formation, SN09-2 was injected into the mice at different concentrations for 25 consecutive days. […] In the group treated with 0.1 mg SN09-2, tumor volumes were reduced by 27%, compared with the vehicle-treated group (Fig. 7A, B). […] The di ... || Both GnRH-I agonists and antagonists are able to inhibit the growth of cancer cells in sex hormone-regulated tissues including ovarian cancer and prostate cancer, by directly stimulating cell death pathways as well as by decreasing gonadotropin and sex hormone levels, [32], [33]. Because of the sequence similarity between GnRH-I and GnRH-II, GnRH-II and its antagonists are considered to exert similar effects on these types of cancer, although its receptor has not been identified in human and its action mechanisms have not been well elucidated. In some reports, GnRH-II has been shown ..."}, "PC3 cells [2]": {"test_system": "PC3 cells", "conditions": "FITC-conjugated form, prostate cancer cells; ref [28]; cited from earlier work", "text": "In previous reports, we and other groups observed that radiolabeled GnRH-II bound to prostate cancer cells through interaction with an approximately 80-kDa protein whose identity was designated as glucose-regulated protein 75 (GRP75) based on liquid chromatography-electrospray ionization-tandem mass spectrometry, [28], [29]. […] Since GRP75 is found predominantly in mitochondria, the final destination of SN09-2 may not be the cell surface. To explore the subcellular location of the antag ..."}, "cytochrome c (PC3 cells)": {"test_system": "cytochrome c (PC3 cells)", "conditions": "ref [28]; cited from earlier work", "text": "(§1) Mitochondrial proteins play pivotal roles in organelle-specific functions such as energy conversion, calcium hemeostasis, ROS generation, and electron transport, [40]. The disturbance of such mitochondrial functions is a critical step towards cell death through the activation of either apoptotic or autophagic pathways, [42]. GRP75 a mitochondrial chaperon is an essential protein for mitochondria biogenesis by refolding and sorting mitochondrial proteins. Elevation of GRP75 is easily observed in various cancer cells, while knockdown of the protein induces mitochondrial dysfunc ..."}, "prostate cancer cells [3]": {"test_system": "prostate cancer cells", "conditions": "ref [28]; cited from earlier work", "text": "as §1"}, "caspase-3 (PC3 cells)": {"test_system": "caspase-3 (PC3 cells)", "conditions": "ref [28], cited from earlier work", "text": "as §1, with “Next, we examined caspase-3 activation by SN09-2. […] We also investigated caspase-3 cleavage in LNCaP and DU145 cells. […] Immunocytochemistry for actively cleaved caspase- ... || Mitochondrial” for “Mitochondrial”"}, "[4]": {"molecular_target": "T1, green monkey GnRHR-II (gmGnRHR-II) (Chlorocebus aethiops, UniProt Q95MH6)", "T1 construct": "expressed in transfected cells; host or cells: CV-1 cells", "T1 sequence (Q95MH6 1-379)": "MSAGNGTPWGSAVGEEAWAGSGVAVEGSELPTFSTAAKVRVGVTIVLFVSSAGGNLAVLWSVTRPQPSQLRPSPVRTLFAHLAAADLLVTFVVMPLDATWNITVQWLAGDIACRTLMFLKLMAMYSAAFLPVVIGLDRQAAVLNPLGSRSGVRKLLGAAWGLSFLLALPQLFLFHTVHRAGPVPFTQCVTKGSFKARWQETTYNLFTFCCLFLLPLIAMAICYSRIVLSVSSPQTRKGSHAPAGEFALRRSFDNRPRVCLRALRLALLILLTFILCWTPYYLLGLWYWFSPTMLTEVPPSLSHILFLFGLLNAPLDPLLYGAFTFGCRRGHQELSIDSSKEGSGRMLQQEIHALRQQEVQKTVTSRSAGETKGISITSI", "experiment": "Reporter gene assay (SRE-luc), antagonism of GnRH-II at gmGnRHR-II", "assay_type": "cell-based", "procedure": "(§2) CV-1 Cells were culture overnight in 24-well plates and subsequently transfected with liposome complex containing pGL3/SRE-luc plasmids with bull frog GnRHR-II (bfGnRHR-II) or green monkey GnRHR-II (gmGnRHR-II). Another 48 h later, cells treated with GnRH-II (1 nM for bfGnRHR-II, 10 nM gmGnRHR-II) and different concentration of SN09-2 or Trp-1 for 6 h were washed with PBS and solublized with lysis buffer. Luciferase activity of cell extracts was determined using the standard luciferase assay system from BioTek Instrument, Inc. (Winooski, VT). To determine transfection efficiency, luciferase activities were normalized to the β-gal activity. All data are calculated from at least three independent experiments normalized to untreated groups."}, "PC3 cells [5]": {"test_system": "PC3 cells", "assay_type": "cell-based, human", "conditions": "for growth inhibition of PC3 cells: 10 µM", "procedure": "(§3) Cells were seeded in 12-well plates in triplicate (1×10^4 cells/well). After 24 h, cells were treated with the indicated concentrations of GnRH-II antagonists solubilized in 0.1% DMSO every 24 h for the indicated number of days. Then, cells were washed with phosphate-buffered saline (PBS), dissociated with trypsin/EDTA, and re-suspended in 500 µl complete growth media. Trypan blue (0.4%) dye-excluding cells were counted under an inverted microscope (Olympus, Tokyo, Japan)."}, "[6]": {"molecular_target": "bull frog GnRHR-II (bfGnRHR-II) (Aquarana catesbeiana, UniProt Q9DE60)", "sequence (Q9DE60 entry or part of it)": "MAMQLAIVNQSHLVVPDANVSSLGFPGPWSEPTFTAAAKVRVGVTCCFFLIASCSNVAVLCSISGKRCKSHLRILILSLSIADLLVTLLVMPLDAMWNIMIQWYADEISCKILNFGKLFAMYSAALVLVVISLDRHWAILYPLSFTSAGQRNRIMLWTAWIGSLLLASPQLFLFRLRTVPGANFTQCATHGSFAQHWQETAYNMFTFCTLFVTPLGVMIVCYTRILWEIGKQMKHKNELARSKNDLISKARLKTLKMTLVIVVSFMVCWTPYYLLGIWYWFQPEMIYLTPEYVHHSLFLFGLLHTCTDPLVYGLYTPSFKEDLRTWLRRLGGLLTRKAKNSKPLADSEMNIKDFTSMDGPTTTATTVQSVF", "experiment": "Reporter gene assay (SRE-luc), antagonism of GnRH-II at bfGnRHR-II", "assay_type": "cell-based", "conditions": "CV-1 cells, GnRH-II 1 nM, antagonist 6 h, luciferase normalized to β-gal, at least three independent experiments", "procedure": "as §2"}, "[7]": {"experiment": "Dissolution in solvents / at the injection site", "assay_type": "physicochemical"}, "DU145 cells": {"test_system": "DU145 cells", "experiment": "Cell viability assay, DU145", "assay_type": "cell-based, human", "conditions": "10 µM, 5% serum, 3 days", "procedure": "as §3"}, "[8]": {"experiment": "Tolerability in nude mice (histology, blood chemistry, injection site)", "assay_type": "in vivo, male athymic nude mice (BALB/c-nu)", "procedure": "Six-week-old male athymic nude mice (BALB/c-nu) were obtained from Harlan (Houston, TX). Mice were housed under specific pathogen-free conditions in an individually ventilated caging system. All experimental procedures were performed after receiving approval from the Institutional Animal Care and Use Committee of Clinical Research Institute in Seoul National University Hospital. PC3 cells (6×10^6) were injected into the right flank of the mice. Ten days after cell injection, tumors with volumes of around 20–25 mm^3 developed in most mice; tumor volumes were measured every day. Tumor volumes were determined by two perpendicular dimensions [length (L) and width (W)] and the height (H), measured using Vernier calipers (the formula is V = (π/6) × (W×L×H). From this time, SN09-2 (acetic acid form) dissolved in 5% N,N-dimethylacetamide (DMA), 10% glycerol, and 85% distilled water which is biocompatible solvent were subcutaneously injected into the mice for 25 consecutive days. The tumor size in each mouse was measured every day. Six to seven mice were used for each experimental group."}}, "note": "pIC50: −log10 of the molar value. Where two headings read alike, the source gives them in different places. Square brackets hold non-standard residues; d marks the D form. Ends that are not written are not given here. Peptide text beside a SMILES is read from it. dPhe(4-Cl) = N[C@H](Cc1ccc(Cl)cc1)C(=O)O; d2Nal = N[C@H](Cc1ccc2ccccc2c1)C(=O)O; dCit = NC(=O)NCCC[C@@H](N)C(=O)O; d3Pal = N[C@H](Cc1cccnc1)C(=O)O", "data": [{"compound": "GnRH-II: the other type of GnRH, structurally conserved in evolution from fish to mammals (QHWSHGWYPG; ends and bridges not checked; UniProt O43555 24-33, looked up)", "values": [{"measurement": "laminin receptor expression", "setting": "human T cells", "result": "stimulates laminin receptor expression"}, {"measurement": "inhibition of proliferation of ovarian cancer cells", "setting": "ovarian cancer cells; ref [26], [27]", "result": "inhibit the proliferation"}, {"measurement": "anti-proliferative effect in ovarian cancer, versus GnRH-I", "setting": "ovarian cancer cells; ref [33]", "result": "stronger anti-proliferative effect than that of GnRH-I"}, {"measurement": "inhibition of proliferation of prostate cancer cells", "setting": "prostate cancer cells [1]; ref [26], [27]", "result": "inhibit the proliferation"}, {"measurement": "displacement of radiolabeled GnRH-II binding", "setting": "prostate cancer cells [1]", "result": "displaced by unlabeled GnRH-II"}]}, {"compound": "cetrorelix", "values": [{"measurement": "block of GnRH-II-induced laminin receptor expression", "setting": "human T cells", "result": "not blocked"}, {"measurement": "growth of tumor formed by implanted PC3 cells", "setting": "PC3 xenograft tumor", "result": "very weak effect on tumor growth"}]}, {"compound": "FITC-conjugated GnRH-II: FITC-conjugated GnRH-II (QHWSHGWYPG; ends and bridges not checked; also: FITC-conjugated, site not given here; UniProt O43555 24-33, looked up)", "values": [{"measurement": "mitochondrial accumulation in presence of unlabeled GnRH-II", "setting": "PC3 cells [2]", "result": "attenuated by unlabeled GnRH-II"}]}, {"compound": "Ac-[d2Nal][dPhe(4-Cl)][d3Pal]SY[dCit]WYP[dA]-NH2 [Trp-1, GnRH-II antagonist of the authors' earlier report]", "values": [{"measurement": "cytochrome c release", "setting": "cytochrome c (PC3 cells)", "result": "does not induce"}, {"measurement": "autophagic cell death", "setting": "prostate cancer cells [3]", "result": "induces autophagic cell death"}, {"measurement": "activation of the apoptotic machinery", "setting": "caspase-3 (PC3 cells); previous results", "result": "could not trigger the activation of the apoptotic machinery"}, {"measurement": "caspase-3 activation", "setting": "caspase-3 (PC3 cells)", "result": "does not induce"}, {"measurement": "inhibitory activity on tumor volume", "setting": "PC3 xenograft tumor; 0.1 mg, PC3 xenograft, quoted comparison, ref [28]", "result": 60, "unit": "%"}, {"measurement": "growth of tumor formed by implanted PC3 cells", "setting": "PC3 xenograft tumor", "result": "inhibited growth of the tumor"}, {"measurement": "antagonism of GnRH-II at gmGnRHR-II", "setting": "[4]; CV-1 cells, SRE-luc reporter, GnRH-II 10 nM, antagonist 6 h, luciferase normalized to β-gal, at least three independent experiments", "result": "partial"}, {"measurement": "PC3 cell growth inhibition, dose response", "setting": "PC3 cells [5]; different concentrations, 5% serum, 3 days, versus DMSO control", "result": "significantly attenuated cell growth in a dose-dependent manner"}, {"measurement": "mitochondrial accumulation in presence of unlabeled GnRH-II", "setting": "PC3 cells [2]", "result": "attenuated by unlabeled GnRH-II"}, {"measurement": "pIC50", "setting": "[6]", "result": 6.60}]}, {"compound": "CC(=O)N[C@H](Cc1ccc2ccccc2c1)C(=O)N[C@H](Cc1ccc(Cl)cc1)C(=O)N[C@H](Cc1cccnc1)C(=O)N[C@@H](CO)C(=O)N[C@@H](Cc1ccccc1)C(=O)N[C@H](CCCCN)C(=O)N[C@@H](Cc1c[nH]c2ccccc12)C(=O)N[C@@H](Cc1ccc(O)cc1)C(=O)N[C@@H](CCCNC(=N)N)C(=O)N[C@H](C)C(N)=O", "note": "[SN09-2, Ac-D-Nal(2)-D-phe(4Cl)-D-Pal(3)-Ser-Phe-D-Lys-Trp-Tyr-Arg-D-Ala-NH2] (Ac-[d2Nal][dPhe(4-Cl)][d3Pal]SF[dK]WYR[dA]-NH2)", "values": [{"measurement": "solubility in 5% DMA", "setting": "[7]; 5% N,N′-dimethylacetamide (DMA) formulation", "result": "appeared well dissolved"}, {"measurement": "solubility in DMSO", "setting": "[7]; DMSO, solvent for in vitro treatment", "result": "dissolved well in DMSO"}, {"measurement": "growth inhibition of DU145 cells", "setting": "DU145 cells", "result": "≈ 50%"}, {"measurement": "pIC50", "setting": "[4]", "result": 5.72}, {"measurement": "growth inhibition of PC3 cells", "setting": "PC3 cells [5]; 5% serum, 4 days", "result": 91, "unit": "%"}, {"measurement": "growth inhibition of PC3 cells", "setting": "PC3 cells [5]; 10% serum, 4 days", "result": 88, "unit": "%"}, {"measurement": "growth inhibition of PC3 cells", "setting": "PC3 cells [5]; higher serum concentrations, 4 days", "result": "more than 85%"}, {"measurement": "growth inhibition of PC3 cells", "setting": "PC3 cells [5]; low serum concentrations (less than 2% FBS), within 4 days", "result": "more than 95%"}, {"measurement": "liver and kidney histopathology", "setting": "[8]; after 25 days subcutaneous treatment", "result": "no histo-pathological abnormalities"}, {"measurement": "serum alkaline phosphatase, aspartate aminotransferase, alanine aminotransferase, urea nitrogen, creatinine, total bilirubin", "setting": "[8]; after 25 days subcutaneous treatment, data not shown", "result": "did not differ between vehicle and SN09-2-treated mice"}, {"measurement": "skin irritation / densely populated cells at the injection site", "setting": "[8]; mice, several days after subcutaneous injection", "result": "no skin irritation or densely populated cells were detected"}, {"measurement": "edema-like phenotype", "setting": "[8]; mice, subcutaneous treatment", "result": "not observed"}, {"measurement": "adverse effects to the animal", "setting": "[8]; xenograft model", "result": "without any apparent adverse effects"}]}, {"compound": "GnRH-I: gonadotropin-releasing hormone-I synthesized in the hypothalamus", "values": [{"measurement": "displacement of radiolabeled GnRH-II binding", "setting": "prostate cancer cells [1]", "result": "not by GnRH-I"}]}]}
